Patent US5538973A, “Imidazole derivative, pharmaceutical use thereof, and intermediate therefor” (Kyoto Pharmaceutical Industries, Ltd., priority 1992, dated 1996)
Where a name gives a salt, the structure may show the parent alone. Read-outs that look alike come from different tables or passages of the source.

Legend:
[1] = system: airway contraction by LTD4; assay: Inhibitory action on contraction of respiratory tract by LTD4 (Konzett and Roessler method); assay type: in vivo, guinea pig; settings: for inhibition in vivo at 30 mg/kg: Cavia porcellus, po, 1 h, read-out: Exp. 4-2 % at which the test compound suppressed airway contraction by LTD4
Description: (§1) A respiratory tract contraction (histamine, LTD4) was intravenously administered to anesthetized guinea pig, and a change in airway resistance was measured in accordance with Konzett end Roessler method. The test drug was orally administered 1 hour before the administration of the contraction inducing agent.
(§2) The experiments 1-4 described above were conducted using the compounds of Examples 1, 2, 6, 8, 12, 14, 19, 23, 27, 30, 34, and 35 to be mentioned below, compound (V), and Terfenadine, the results of which are shown in Table 1.
(§3) **% at which the test compound (30 mg/kg, p.o.) suppressed airway
(§4) contraction by histamine (41) or LTD4 (42)

[2] = system: contraction of lung parenchymal specimen by histamine; assay: Antihistaminic action: contraction of lung parenchymal specimen caused by histamine; assay type: cell-based; settings: test compound 10^-5 M, histamine 10^-5 M, guinea pig lung parenchyma; for inhibition at 10 µM: Cavia porcellus, read-out: Exp. 3 % at which the test compound suppressed contraction by histamine
Description: A lung parenchymal specimen extracted from guinea pig was hung in a nutritive solution at 37° C., and applied a load of 0.5 g. Contraction caused by histamine under aeration of 95% O2 +5% CO2 was recorded isometrically. The inhibition by the test drug with respect to the dose-reaction curve by histamine at 10^-7 -10^-4 was examined.
as §2
*% at which the test compound (10^-5 M) suppressed contraction by […]

[3] = system: airway contraction by histamine; assay: Inhibitory action on contraction of respiratory tract by histamine (Konzett and Roessler method); assay type: in vivo, guinea pig; settings: for inhibition in vivo at 30 mg/kg: Cavia porcellus, po, 1 h, read-out: Exp. 4-1 % at which the test compound suppressed airway contraction by histamine
Description: as §1, §2, §3, §4

[4] = system: synthesis of TXA2; assay: Inhibitory action on synthesis of TXA2 (PGH2 substrate, aspirin-treated platelets, TXB2 by RIA); assay type: cell-based; settings: Platelet, read-out: Exp. 1 (IC50) inhibitory action on synthesis of TXA2
Description: Prostaglandin H2 (PGH2) was added as a substrate to an aspirin-treated platelet floating solution, and the mixture was incubated at 37° C. The resultant TXA2 was converted to TXB2, and measured by RIA method. The test drug was added 10 minutes before the addition of PGH2.
as §2

[5] = system: blood platelet aggregation; assay: Inhibitory action on blood platelet aggregation (arachidonic acid aggregation in rich platelet plasma, nephelometry); assay type: cell-based; settings: arachidonic acid 0.1 mM, test drug added 1 minute before, read-out: Exp. 2 (IC50) inhibitory action on blood platelet aggregation
Description: Arachidonic acid aggregation in rich platelet plasma was determined by nephelometry. The test drug was added 1 minute before the addition of the arachidonic acid (0.1 mM).
as §2

[6] = system: male ddy mice; assay: Acute toxicity, oral, male ddy mice; assay type: in vivo; settings: 1000 mg/20 ml/kg orally, 5 male ddy mice
Description: The compound of Example 6 was suspended in a 5% gum arabic solution and orally administered to 5 male ddy mice at 1000 mg/20 ml /kg.

[7] = 30 mg/kg, p.o., 1 hour before LTD4 i.v., anesthetized guinea pig
[8] = 30 mg/kg, p.o., 1 hour before histamine i.v., anesthetized guinea pig
[9] = test drug added 10 minutes before PGH2, 37° C.

IC50 ([5]; Platelet) | Structure (SMILES) | inhibition in vivo at 30 mg/kg [1, 7] | inhibition at 10 µM [2] | inhibition in vivo at 30 mg/kg [3, 8] | inhibition in vivo at 30 mg/kg [1] | inhibition in vivo at 30 mg/kg [3] | further results
54 µM | O=C(O)C=Cc1ccc(Cn2ccnc2)cc1 [Compound (V), reference compound] | 57% | 8% | 4% | – | – | IC50 [4, 9]: 1.5 µM
4.4 µM | O=C(COCCN1CCN(C(c2ccccc2)c2ccccc2)CC1)N1CCc2cc(-n3ccnc3)ccc21 [Example 1, 1-[2-(4-benzhydryl-1-piperazinyl)ethoxyacetyl]-5-(1H-imidazol-1-yl)indoline oxalate] | 73% | 95% | 100% | – | – | –
– | Cl.Cl.Cl.O=C(O)c1cc2cc(Cn3ccnc3)ccc2n1CCCN1CCN(C(c2ccccc2)c2ccccc2)CC1 [Example 6, 1-[3-(4-benzhydryl-1-piperazinyl)propyl]-5-(1H-imidazol-1-ylmethyl)-1H-indole-2-carboxylic acid trihydrochloride] | – | 100% | 100% | – | – | death [6]: No death was observed; Exp. 4-2 % at which the test compound suppressed airway contraction by LTD4 [1, 7]: 75%; IC50 [4, 9]: 0.4 µM; IC50 ([5]; listed as Ex. 6, trihydrochloride): 8.1 µM
21 µM | c1ccc(C(c2ccccc2)N2CCN(CCCn3ccc4cc(-n5ccnc5)ccc43)CC2)cc1 [Example 19] | 40% | 45% | 94% | – | – | –
– | O=C(O)c1cc2cc(Cn3ccnc3)ccc2n1CCCN1CCN(C(c2ccccc2)c2ccccc2)CC1 [Example 23] | – | – | – | – | – | Exp. 4-2 % at which the test compound suppressed airway contraction by LTD4 [1, 7]: 53%; Exp. 3 % at which the test compound suppressed contraction by histamine ([2]; 10 µM): 94%; Exp. 4-1 % at which the test compound suppressed airway contraction by histamine [3, 8]: 94%; IC50 ([5]; listed as Ex. 23): 34 µM
> 100 µM | c1ccc(CC2CCN(CCn3ccc4cc(-n5ccnc5)ccc43)CC2)cc1 [Example 27] | 68% | 58% | 100% | – | – | –
9.9 µM | O=C(O)c1ccc2c(Cn3ccnc3)cn(CCCN3CCC(Cc4ccccc4)CC3)c2c1 [Example 30] | 26% | 100% | 100% | – | – | –
> 100 µM | O=C(O)c1ccc2c(c1)c(CCn1ccnc1)cn2CCCN1CCC(Cc2ccccc2)CC1 [Example 34] | 31% | 58% | 90% | – | – | –
– | CC(C)(C)c1ccc(C(O)CCCN2CCC(C(O)(c3ccccc3)c3ccccc3)CC2)cc1 (centres unmarked) [Terfenadine, reference compound] | 27% | 48% | 100% | – | – | –

Structure (SMILES) | IC50 ([5]; Platelet) | inhibition in vivo at 30 mg/kg [1, 7] | inhibition at 10 µM [2] | inhibition in vivo at 30 mg/kg [3, 8] | inhibition in vivo at 30 mg/kg [1] | inhibition in vivo at 30 mg/kg [3] | further results
O=C(N1CCN(CCOC(c2ccccc2)c2ccccc2)CC1)N1CCc2cc(-n3ccnc3)ccc21 [Example 2, 1-{4-[(2-benzhydryloxyethyl)-1-piperazinyl]-carbonyl}-5-(1H-imidazol-1-yl)indoline oxalate] | 4.7 µM | – | 66% | – | 83% | 100% | IC50 [4]: 1.5 µM
O=C(CN1CCN(CCOC(c2ccccc2)c2ccccc2)CC1)N1CCc2cc(-n3ccnc3)ccc21 [Example 8] | 2.1 µM | – | 55% | – | 87% | 100% | –
O=C(N1CCN(CCOC(c2ccccc2)c2ccccc2)CC1)N1CCc2cc(Cn3ccnc3)ccc21 [Example 12] | 18 µM | – | 61% | – | 64% | 100% | –
O=C(CN1CCN(CCOC(c2ccccc2)c2ccccc2)CC1)N1CCc2cc(Cn3ccnc3)ccc21 [Example 14] | 58 µM | – | 45% | – | 42% | 100% | –
O=C(O)c1ccc2c(c1)c(CCn1ccnc1)cn2CCCN1CCN(CCOC(c2ccccc2)c2ccccc2)CC1 [Example 35] | 71 µM | – | 100% | – | 18% | 100% | –
